These results are taken from ChEMBL document CHEMBL4251612, “Naturally occurring Diels-Alder-type adducts from Morus nigra as potent inhibitors of Mycobacterium tuberculosis protein tyrosine phosphatase B” (Eur J Med Chem, 2018).

The term IC50 denotes the midpoint of a concentration-inhibition curve. Read a low IC50 as greater potency. By Ki is commonly meant a measure of affinity in units of concentration, obtained from inhibition or displacement. Higher therefore signals a looser hold on the target. The term Kd denotes a measure of binding affinity in units of concentration. Higher therefore signals lower affinity. Broadly, the MIC is the smallest concentration in the dilution series that meets the test's criterion for growth inhibition. Low readings indicate greater potency, high ones weaker potency. Usually CC50 stands for the concentration that lowers cell viability or growth by half. Read a high CC50 as better tolerance by the cells.

For data set [1], the target named is T1, Phosphotyrosine protein phosphatase (Mycobacterium tuberculosis, UniProt A0A045ISB3).
T1 sequence (A0A045ISB3 whole entry): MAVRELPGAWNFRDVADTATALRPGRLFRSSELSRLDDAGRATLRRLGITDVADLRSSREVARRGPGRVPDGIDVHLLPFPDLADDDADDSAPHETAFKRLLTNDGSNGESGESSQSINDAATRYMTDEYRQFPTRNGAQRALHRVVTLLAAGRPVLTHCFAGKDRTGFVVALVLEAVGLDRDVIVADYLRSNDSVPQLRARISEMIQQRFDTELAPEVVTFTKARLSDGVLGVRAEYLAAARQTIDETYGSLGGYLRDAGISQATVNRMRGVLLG
Briefly: Inhibition of Mycobacterium tuberculosis PtpB using p-nitrophenyl phosphate as substrate preincubated for 10 mins followed by substrate addition measured every minute for 10 mins by UV-VIS spectrophotometric analysis.

In data set [2] the target is T2, Phosphotyrosine protein phosphatase (Mycobacterium tuberculosis) (UniProt A0A045ISB3).
T2 sequence (whole entry): T1 sequence (A0A045ISB3 whole entry)
The data set is described as follows: Competitive inhibition of Mycobacterium tuberculosis PtpB using p-nitrophenyl phosphate as substrate up to 0.3 uM preincubated for 10 mins followed by substrate addition measured every minute for 10 mins by Michaelis-Menten plot analysis.

In data set [3] the target is T1, Phosphotyrosine protein phosphatase. The data set is described as follows: Inhibition of Mycobacterium tuberculosis PtpB using p-nitrophenyl phosphate as substrate preincubated for 10 mins followed by substrate addition measured every minute for 10 mins by Michaelis-Menten plot analysis.
For data set [4], the target named is T2, Phosphotyrosine protein phosphatase (Mycobacterium tuberculosis). The data set is described as follows: Binding affinity to Mycobacterium tuberculosis PtpB assessed as Stern-Volmer quenching constant by UV-VIS spectrophotometric analysis.
Data set [5] deals with T1, Phosphotyrosine protein phosphatase. Briefly: Binding affinity to Mycobacterium tuberculosis PtpB by UV-VIS spectrophotometric analysis.
Data set [6] relates to Mycobacterium tuberculosis. Briefly: Antitubercular activity against Mycobacterium tuberculosis H37Ra ATCC 25177 after 7 days by resazurin microtiter assay. The format is functional. The following applies: H37Ra ATCC 25177, 168 h. For orientation: Resazurin is reduced to fluorescent resorufin, in cell work by metabolically active cells.
Data set [7] can be described thus: Cytotoxicity against human THP1 cells after 72 hrs by MTT assay. The format is cell-based. The following applies: THP-1 cells. Background: Tetrazolium dyes change colour on reduction, which living cells bring about.
Data set [8] concerns Mycobacterium tuberculosis. Briefly: Antitubercular activity against Mycobacterium tuberculosis H37Ra ATCC 25177 infected in human THP1 cells assessed as reduction in CFU at 13.2 uM after 72 hrs. The format is functional, organism-based.
In data set [9] the target is T2, Phosphotyrosine protein phosphatase (Mycobacterium tuberculosis). Briefly: Time independent inhibition of Mycobacterium tuberculosis PtpB at 0.2 uM pre-incubated for 0 to 10 mins before p-nitrophenyl phosphate substrate addition.
For data set [10] the target is unchanged. The data set is described as follows: Binding affinity to Mycobacterium tuberculosis PtpB assessed as fluorescence quenching at 0.1 to 3.8 uM by spectropolarimetry.
The target is the same in data set [11]. Briefly: Binding affinity to Mycobacterium tuberculosis PtpB assessed as protection against proteolytic cleavage at 100 to 400 uM preincubated for 10 mins before trypsin addition by mass spectrometry.
For data set [12] the target is unchanged. Briefly: Non-competitive inhibition of Mycobacterium tuberculosis PtpB using p-nitrophenyl phosphate as substrate up to 0.3 uM preincubated for 10 mins followed by substrate addition measured every minute for 10 mins by Michaelis-Menten plot analysis.
Data set [13] deals with T3, Tyrosine-protein phosphatase non-receptor type 1 (Homo sapiens, UniProt P18031).
T3 sequence (P18031 whole entry): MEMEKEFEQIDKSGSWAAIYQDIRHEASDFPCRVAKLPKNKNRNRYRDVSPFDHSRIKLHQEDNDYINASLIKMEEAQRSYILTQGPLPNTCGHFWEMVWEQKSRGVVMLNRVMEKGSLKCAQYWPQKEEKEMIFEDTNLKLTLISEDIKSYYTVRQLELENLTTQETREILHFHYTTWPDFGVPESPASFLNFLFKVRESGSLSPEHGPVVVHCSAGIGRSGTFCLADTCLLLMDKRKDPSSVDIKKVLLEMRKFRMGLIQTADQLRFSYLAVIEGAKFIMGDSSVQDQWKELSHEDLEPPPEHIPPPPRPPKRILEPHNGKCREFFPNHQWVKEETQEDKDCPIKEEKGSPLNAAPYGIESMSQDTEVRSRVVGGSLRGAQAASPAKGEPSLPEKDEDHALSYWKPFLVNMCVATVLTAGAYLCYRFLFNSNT
Briefly: Non-competitive inhibition of human PTP1B using p-nitrophenyl phosphate as substrate up to 7 uM preincubated for 10 mins followed by substrate addition measured every minute for 10 mins by Michaelis-Menten plot analysis.

The nature of data set [14]: Selectivity index, ratio of Ki for human PTP1B to Ki for Mycobacterium tuberculosis PtpB.
The test system of data set [15] is Mycobacterium tuberculosis. The data set is described as follows: Antitubercular activity against Mycobacterium tuberculosis H37Ra ATCC 25177 infected in human THP1 cells assessed as reduction in CFU at 14.4 uM after 72 hrs relative to control. The following applies: H37Ra ATCC 25177, THP-1, 72 h, read-out: GI. The format is functional.
Data set [16] concerns the target T2, Phosphotyrosine protein phosphatase (Mycobacterium tuberculosis). Briefly: Binding affinity to Mycobacterium tuberculosis PtpB assessed as fluorescence quenching at 0.1 to 4.7 uM by spectropolarimetry.
Data set [17] concerns the target T1, Phosphotyrosine protein phosphatase. The data set is described as follows: Binding affinity to Mycobacterium tuberculosis PtpB by ITC method. Background: In ITC the heat of successive injections is recorded.
Data set [18] concerns the target T2, Phosphotyrosine protein phosphatase (Mycobacterium tuberculosis). Briefly: Ratio of Kd for binding affinity to Mycobacterium tuberculosis PtpB by fluorescence based assay to Kd for binding affinity to Mycobacterium tuberculosis PtpB by ITC method.
Data set [19] concerns the target T4, Tyrosine-protein phosphatase non-receptor type 1 (Homo sapiens) (UniProt P18031).
T4 sequence (whole entry): T3 sequence (P18031 whole entry)
The data set is described as follows: Binding affinity to human PTP1B assessed as protection against proteolytic cleavage at 400 uM preincubated for 10 mins before trypsin addition and measured after 2 hrs by mass spectrometry.

Data set [20] deals with T2, Phosphotyrosine protein phosphatase (Mycobacterium tuberculosis). Briefly: Binding affinity to Mycobacterium tuberculosis PtpB assessed as binding constant by ITC method.

Values after ≈ are worked out from the molar mass of the structure shown. Active and inactive are the calls of the source.

In data set [1], `CC(C)=CCc1c(O)ccc(C(=O)[C@@H]2[C@@H](c3ccc(O)cc3O)CC(C)=C[C@H]2c2c(O)cc(O)c3c(=O)c(CC=C(C)C)c(-c4ccc(O)cc4O)oc23)c1O` showed a half-maximal inhibitory concentration (IC50) of 360 nM. Besides, the inhibition result in [2] and in data set [9] was “Active” throughout. The compound further had an inhibition constant Ki in [3] of 200 nM. Besides, the Ka in [4] stood at 1 ×10⁶ /M. Also, in data set [5], the affinity, expressed as Kd, was 1000 nM. This compound also came in with an MIC in data set [6] of 32 µg/mL (≈ 42.1 µM). The same compound came in with a CC50 at 72 h in [7] of 20.2 µg/mL (≈ 26.6 µM). In addition, in data set [8], the outcome was inactive. The outcome in [10] and in [11] was Active.

In data set [1], `CC(C)=CCc1c(-c2ccc(O)cc2O)oc2c([C@@H]3C=C(C)C[C@H](c4ccc(O)cc4O)[C@H]3C(=O)c3ccc(O)cc3O)c(O)cc(O)c2c1=O` yielded an IC50 of 830 nM. The inhibition entry in [12] and in data set [9] was “Active” each time. In addition, the Ki was 390 nM in [3] and 200 nM in data set [13]. Also, the Ratio Ki in data set [14] came out at 26. In addition, the Ka in data set [4] is 1 ×10⁶ /M; in data set [20], 3.5 ×10⁵ /M. Also, the Kd is 1000 nM in [5] and 2900 nM in data set [17]. The minimum inhibitory concentration (MIC) in data set [6] turned out to be 32 µg/mL (≈ 46.2 µM). Moreover, the CC50 at 72 h in [7] was found to be 33.8 µg/mL (≈ 48.8 µM). For the same compound, the inhibition of growth at 14.4 µM in data set [15] stood at 61.3%. Further, the outcome in [16] and in [11] was Active. Further, the Ratio in data set [18] came to 2. The outcome in [19] was inactive.
